“Also recorded” adds a separate entry of the source. Where two headings read alike, the source gives them in different places.
Experiments:
[1] = design: method as in PMID 4650364; details: urine at 8 h after a single oral dose of 10 mg/kg BW TMP; cited from earlier work
in vivo [2] = details: for Radioactive compound detected/identified in plasma / Concentration in plasma: single oral ^3H-DVD 10 mg/kg BW; for t1/2 (elimination half-life): non-compartmental; for Concentration in plasma: pigs
Source text: (§1) Four healthy castrated male pigs (Landrace/Doric Cross, 60-d-old, 30 ± 2 kg) were supplied by the China Breeding Pig Testing Center of Huazhong Agricultural University (Wuhan, China). Six healthy Cobb 500 broiler chickens (three female and three male, 40-d-old, 2.5 ± 0.1 kg) were purchased from Wuhan Chia Tai chicken farm (Wuhan, China). All animals were maintained under standard environmental conditions by using normal husbandry practices and were acclimatized for 1 week. The animals were fed a commercial standard diet and water ad libitum, but were fasted overnight before dose administration and up to 4 h after dose administration. All animal care and experimental protocols were conducted in accordance with the Guide for the Care and Use of Laboratory Animals of Hubei Provincial Laboratory Animal Public Service Center (permit number SYXK 2013-0044) and approved by the Ethics Committee of Huazhong Agricultural University.
(§2) Pigs (n = 4) and chickens (n = 6) were weighed individually and given a single dose of 10 mg/kg BW ^3H-DVD with a specific activity of 0.23 Ci/g. The ^3H-DVD solution was prepared by accurately mixing ^3H-DVD and non-labeled DVD at a mass ratio of 1:96 and diluting it with 0.5% methylcellulose to make a homogeneous suspension with a concentration of 25 mg/ml. The suspension was administered by gastric gavage using a soft stomach tube connected to an injection syringe. About 1.5 ml of blood was collected into heparinized tubes from the anterior venae cavae of pig and the wing veins of chicken at different time points. For pigs, blood was collected before administration and 0.17, 0.33, 0.5, 0.67, 1, 1.5, 2, 4, 6, 8, 12, 24, 48, 72, 168, and 336 h after oral treatment. For chickens, blood was collected before administration and 0.25, 0.5, 1, 1.5, 2, 4, 6, 8, 12, 24, 36, 48, 72, 168, and 336 h after oral dosing. Plasma samples were collected after centrifugation at 4°C and 2,254 × g for 10 min and were stored at −20°C until analysis.
(§3) Plasma samples were completely thawed at room temperature. Each sample was divided into two parts, one was used for the assay of total radioactivity, and the other was subjected to a MCX Solid Phase Extraction (SPE) procedure for the qualitative and quantitative analysis of DVD-related metabolites.
(§4) The total radioactivity assay was conducted in accordance with a previous study with a few modifications ([20]). Briefly, 50 μl of plasma was mixed with 50 μl of 0.1 mol/L EDTA-Na and 50 μl of 30% H2O2 at 50°C in a shaking water bath for 2 h for bleaching. The obtained transparent liquid was mixed with 10 ml of Ultima Gold™ scintillation fluid and was analyzed directly using a Packard Tri-Carb 2900 TR liquid scintillation counter (PerkinElmer Life and Analytical Sciences, Waltham, MA, USA). The scintillation counter data were automatically corrected for counting efficiency using an instrument-stored quench curve that was drawn with a series of sealed quenched ^14C standards. All the samples were analyzed in duplicate and the actual radioactivity of each sample was calculated by subtracting the […].
(§5) A 500 μl plasma sample was adjusted to pH 2.8–3.2 with 1 ml of 1 M hydrochloric acid (HCl), and a […] aliquot of the mixture was placed in a MCX cartridge preconditioned with 3 ml of methanol followed by 3 ml of 0.1 mol/L HCl water. The cartridge was washed with 3 ml of 0.1 mol/L HCl water and then eluted with 5 ml NH4OH/methanol (8:92, v:v). The effluent was concentrated to dryness under a stream of nitrogen at 40°C. The residue was reconstituted in 250 μl of methanol-water (1:9, v:v) before injection onto the LC-v.ARC/MS-IT-TOF system for metabolite identification and quantitation.
(§6) Measurement of total radioactivity in each sample was conducted using a Packard Tri-Carb 2900 TR liquid scintillation counter. The detection time was 10 min for two cycles.

in vivo [3] = details: for Radioactive compound detected/identified in plasma / Concentration in plasma: single oral ^3H-DVD 10 mg/kg BW; for Concentration in plasma: chickens
Source text: as §1, §2, §3, §4, §5, §6

[4] = system: tester strain TA100 and TA98; design: method as in PMID 1922158, PMID 26397222; details: cited from earlier work
[5] = pigs, cited from earlier work
[6] = chickens, cited from earlier work
[7] = design: method as in PMID 26212255; details: cited from earlier work
[8] = design: method as in PMID 22161732; details: pig liver microsomes incubated with DVD; cited from earlier work
[9] = male, Landrace/Doric Cross, pig, in vivo, po, 10 mg/kg
[10] = pig plasma, oral ^3H-DVD 10 mg/kg BW
[11] = both, Cobb 500 broiler, in vivo, po, 10 mg/kg
[12] = chicken plasma, oral ^3H-DVD 10 mg/kg BW
[13] = HPLC-UV method, previous studies

COc1cc(Cc2cnc(N)nc2N)cc(O)c1OC [3′-demethylated TMP]
Content in urine [1]: > 30%

COc1cc(Cc2cnc(N)nc2N)cc(OC)c1O [4′-demethylated TMP]
Content in urine [1]: 1%

COc1ccc(Cc2cnc(N)nc2N)cc1OC [D0, 5-[(3′,4′-dimethoxyphenyl)methyl]-2,4-pyrimidinediamine, reference compound]
Tmax (time to Cmax from time zero) (in vivo [2]; male, Landrace/Doric Cross, pig, in vivo): 2.0 ± 0.0 h | concentration at 168 h (in vivo [2]; male, Landrace/Doric Cross, pig, in vivo, 10 mg/kg BW): 60 ± 20 ng/mL | AUC0−∞ (in vivo [2]; male, Landrace/Doric Cross, pig, in vivo, po): 33900 ng·h/mL | AUC(0-inf) (in vivo [2]; [9]): 33900 ± 5810 ng·h/mL | ClB (total body clearance) (in vivo [2]; [9]): 5 ± 0.83 mL/min/kg | Cmax (in vivo [2]; [9]): 490 ± 20 ng/mL | MRT inf (in vivo [2]; [9]): 93 ± 12.6 h | MRT last (in vivo [2]; [9]): 57.3 ± 1.72 h | half-life (in vivo [2]; [9]): 66.4 ± 10.1 h | Tmax (time to Cmax from time zero) (in vivo [2]; [10]): 2 h | Radioactive compound detected/identified in plasma (in vivo [2]; pig plasma): identified; also recorded: detected | Time at which DVD was still detected in plasma (in vivo [2]; pig plasma, this study): 168 h | Tmax (time to Cmax from time zero) (in vivo [3]; both, Cobb 500 broiler, chicken, in vivo): 2.0 ± 0.0 h | concentration at 168 h (in vivo [3]; both, Cobb 500 broiler, chicken, in vivo, 10 mg/kg BW): 90 ± 30 ng/mL | AUC0−∞ (in vivo [3]; both, Cobb 500 broiler, chicken, in vivo, po): 55300 ng·h/mL | AUC(0-inf) (in vivo [3]; [11]): 55300 ± 11500 ng·h/mL | ClB (total body clearance) (in vivo [3]; [11]): 3.17 ± 0.67 mL/min/kg | Cmax (in vivo [3]; [11]): 1550 ± 390 ng/mL | MRT inf (in vivo [3]; [11]): 66.2 ± 10.7 h | MRT last (in vivo [3]; [11]): 43.7 ± 2.42 h | half-life (in vivo [3]; [11]): 48.3 ± 12.8 h | Tmax (time to Cmax from time zero) (in vivo [3]; [12]): 2 h | Radioactive compound detected/identified in plasma (in vivo [3]; chicken plasma): identified; also recorded: detected | Time at which DVD was still detected in plasma (in vivo [3]; chicken plasma, this study): 168 h | Mutagenicity ([4]; strain TA100 after metabolic activation with hamster S9 mix): mutagenic | Mutagenicity ([4]; tester strain TA100 and TA98, presence and absence of rat S9 mix): not mutagenic | Cmax [5, 13]: 430 ng/mL | Tmax [5, 13]: 1.04 h | Time at which DVD was still detected in plasma ([5]; HPLC-UV, ref Li et al. 15): 6 h | Cmax [6, 13]: 1450 ng/mL | Tmax [6, 13]: 3.25 h | Time at which DVD was still detected in plasma ([6]; HPLC-UV, ref Li et al. 15): 24 h | Withdrawal period ([7]; kidney): 6.74 days | Withdrawal period ([7]; liver): 4.94 days | Withdrawal period ([7]; muscle): 4.77 days | Withdrawal period ([7]; skin with fat): 4.58 days

COc1ccc(Cc2cnc(N)nc2N)cc1O [D1, 3′-desmethyl-DVD]
AUC0−∞ (in vivo [2]; [10]): 3720 ± 620 ng·h/mL | ClB (total body clearance) (in vivo [2]; [10]): 46 ± 7.67 mL/min/kg | Cmax (maximum drug concentration) (in vivo [2]; [10]): 240 ± 50 ng/mL | MRT0−∞ (in vivo [2]; [10]): 22.93 ± 1.28 h | MRTLast (in vivo [2]; [10]): 15.23 ± 0.25 h | Tmax (time to Cmax from time zero) (in vivo [2]; [10]): 2 h | Vd (apparent volume of distribution) (in vivo [2]; [10]): 70.38 ± 6.67 L/kg | t1/2 (elimination half-life) (in vivo [2]; [10]): 17.86 ± 1.30 h | Radioactive compound detected/identified in plasma (in vivo [2]; pig plasma): identified; also recorded: detected | Concentration in plasma (in vivo [2]; 0.5 h, ND = below the LOQ): 120 ± 30 ng/mL | Concentration in plasma (in vivo [2]; 0.67 h): 150 ± 20 ng/mL | Concentration in plasma (in vivo [2]; 1 h): 160 ± 40 ng/mL | Concentration in plasma (in vivo [2]; 1.5 h): 190 ± 30 ng/mL | Concentration in plasma (in vivo [2]; 2 h): 240 ± 60 ng/mL | Concentration in plasma (in vivo [2]; 4 h): 160 ± 20 ng/mL | Concentration in plasma (in vivo [2]; 6 h): 100 ± 20 ng/mL | Concentration in plasma (in vivo [2]; 8 h): 80 ± 10 ng/mL | Concentration in plasma (in vivo [2]; 12 h): 80 ± 10 ng/mL | Concentration in plasma (in vivo [2]; 24 h): 60 ± 10 ng/mL | Concentration in plasma (in vivo [2]; 48 h): 20 ± 10 ng/mL | Metabolite detected in vitro [8]: detected

COc1ccc(Cc2cnc(N)nc2N)cc1OC1OC(C(=O)O)C(O)C(O)C1O (centres unmarked) [D2, monoglucuronide of 3′-desmethyl-DVD]
AUC0−∞ (in vivo [2]; [10]): 17580 ± 2320 ng·h/mL | ClB (total body clearance) (in vivo [2]; [10]): 9.67 ± 1.3 mL/min/kg | Cmax (maximum drug concentration) (in vivo [2]; [10]): 1380 ± 40 ng/mL | MRT0−∞ (in vivo [2]; [10]): 23.01 ± 1.48 h | MRTLast (in vivo [2]; [10]): 14.91 ± 0.41 h | Tmax (time to Cmax from time zero) (in vivo [2]; [10]): 2 h | Vd (apparent volume of distribution) (in vivo [2]; [10]): 15.39 ± 3.28 L/kg | t1/2 (elimination half-life) (in vivo [2]; [10]): 18.26 ± 1.70 h | Radioactive compound detected/identified in plasma (in vivo [2]; pig plasma): identified; also recorded: detected | Concentration in plasma (in vivo [2]; 0.17 h, ND = below the LOQ): 100 ± 30 ng/mL | Concentration in plasma (in vivo [2]; 0.33 h, ND = below the LOQ): 260 ± 110 ng/mL | Concentration in plasma (in vivo [2]; 0.5 h, ND = below the LOQ): 520 ± 150 ng/mL | Concentration in plasma (in vivo [2]; 0.67 h): 610 ± 190 ng/mL | Concentration in plasma (in vivo [2]; 1 h): 690 ± 200 ng/mL | Concentration in plasma (in vivo [2]; 1.5 h): 1230 ± 40 ng/mL | Concentration in plasma (in vivo [2]; 2 h): 1380 ± 40 ng/mL | Concentration in plasma (in vivo [2]; 4 h): 660 ± 50 ng/mL | Concentration in plasma (in vivo [2]; 6 h): 500 ± 80 ng/mL | Concentration in plasma (in vivo [2]; 8 h): 410 ± 70 ng/mL | Concentration in plasma (in vivo [2]; 12 h): 350 ± 60 ng/mL | Concentration in plasma (in vivo [2]; 24 h): 270 ± 80 ng/mL | Concentration in plasma (in vivo [2]; 48 h): 90 ± 10 ng/mL | AUC0−∞ (in vivo [3]; [12]): 1730 ± 440 ng·h/mL | ClB (total body clearance) (in vivo [3]; [12]): 102 ± 26.3 mL/min/kg | Cmax (maximum drug concentration) (in vivo [3]; [12]): 270 ± 80 ng/mL | MRT0−∞ (in vivo [3]; [12]): 6.20 ± 0.18 h | MRTLast (in vivo [3]; [12]): 4.66 ± 0.17 h | Tmax (time to Cmax from time zero) (in vivo [3]; [12]): 2 h | Vd (apparent volume of distribution) (in vivo [3]; [12]): 32.45 ± 12.36 L/kg | t1/2 (elimination half-life) (in vivo [3]; chicken plasma, oral ^3H-DVD 10 mg/kg BW, non-compartmental): 3.56 ± 0.44 h | Radioactive compound detected/identified in plasma (in vivo [3]; chicken plasma): identified; also recorded: detected | Concentration in plasma (in vivo [3]; 1 h): 120 ± 30 ng/mL | Concentration in plasma (in vivo [3]; 1.5 h): 230 ± 30 ng/mL | Concentration in plasma (in vivo [3]; 2 h): 270 ± 90 ng/mL | Concentration in plasma (in vivo [3]; 4 h): 180 ± 60 ng/mL | Concentration in plasma (in vivo [3]; 6 h): 140 ± 50 ng/mL | Concentration in plasma (in vivo [3]; 8 h): 90 ± 30 ng/mL | Concentration in plasma (in vivo [3]; 12 h): 40 ± 10 ng/mL | Metabolite detected in vitro [8]: no D2 was found

— article PMC8803906, “Metabolite Identification and Pharmacokinetic Behavior of Diaveridine in the Plasma of Pigs and Chickens Based on Radioactive Tracing Coupled With LC/MS-IT-TOF Assay” (Frontiers in Veterinary Science, 2022)
